Assay results: PMC9081605, “A High-Throughput Toxicity Screen of 42 Per- and Polyfluoroalkyl Substances (PFAS) and Functional Assessment of Migration and Gene Expression in Human Placental Trophoblast Cells” (Frontiers in Toxicology, 2022)

Tested on: JEG-3 cells
Experiment: Gene expression, custom NanoString code set of 46 genes
Assay type: cell-based, human
Description: JEG-3 cells were seeded at a density of 80,000 cells per well in six well plates and allowed to adhere overnight (24 h). The following day, media was removed and replaced with exposure media, then returned to the incubator for 24 h. The test compounds included non-cytotoxic concentrations of PFOA (0, 1, and 100 µM) and GenX (0, 3, 300 µM). These test compounds were selected a priori due to their high public health relevance. Each 6 well plate contained the three concentrations for either PFOA or GenX, with each condition in technical duplicate. Plates containing these PFOA or GenX exposure conditions were replicated three times (N = 3). After 24 h, exposure media was aspirated and cells were washed in ice cold 1xPBS, which was then aspirated. Each well received 500 µl of TRIzol reagent (Thermo Fisher Scientific, MA, United States) and cells were harvested in the TRIzol using a cell scraper. Technical duplicate wells within a plate were combined to generate a single sample of ∼1,000 µl. RNA was isolated from the resulting cellular homogenate using RNeasy Mini Kits (Qiagen, Hilden, Germany). Isolated RNA quality was validated and concentration determined using a NanoDrop 2000 (Thermo Fisher Scientific, MA, United States). 100 ng of mRNA from each sample was then analyzed using a custom gene expression code set (NanoString, Seattle, WA, United States). The custom code set included 46 genes selected for their downstream involvement in placental development (e.g., WNT4), endocrine signaling (e.g., CYP19A1), fetal growth/nutrient sensing (e.g., IGF2), inflammation (e.g., IL6), oxidative stress (e.g., SOD1, GPX1), and xenobiotic transport/metabolism (e.g., ABCG2, MRP3).
Gene expression data were quantified using the nCounter Digital Analyzer (NanoString, Seattle, WA, United States) and raw and adjusted counts were generated with nSolver (v4.0) software (NanoString, Seattle, WA, United States). Data were adjusted utilizing the manufacturer’s positive and negative experimental control probes, as well as housekeeping genes (ACTA2, ACTB, B2M, LDHA, RNA18S5, and ROLYR2L). All samples passed nSolver’s initial QA/QC controls and replicates were very well correlated with R ^2 values greater than 0.99. Adjusted data were then imported into Partek v7.0 (St. Louis, MO, United States), log2 transformed and quantile normalized for further QA/QC and statistical analyses. Genes with mRNA counts below the detection threshold of 20 were removed due to suboptimal probe hybridization (N = 2 genes for GenX; GH2 and IGFBP5). Fold change values were analyzed by ANOVA with post hoc false discovery rate adjustment (FDR) of p < 0.1. Normalized gene expression values were visualized using pheatmap with Euclidean clustering of genes and concentration groups ([Kolde and Kolde, 2015]).

N.O=C(O)C(F)(OC(F)(F)C(F)(F)C(F)(F)F)C(F)(F)F (centres unmarked) [Ammonium perfluoro-2-methyl-3-oxahexanoate]
11BHSD2 gene expression, fold change over untreated control (3 µM, 24 h): -1.00
17BHSD1 gene expression, fold change over untreated control (3 µM, 24 h): -1.11
AHR gene expression, fold change over untreated control (3 µM, 24 h): 1.04
AHRR gene expression, fold change over untreated control (3 µM, 24 h): 1.18
CAT gene expression, fold change over untreated control (3 µM, 24 h): 1.02
CGB5 gene expression, fold change over untreated control (3 µM, 24 h): 1.08
COX2 gene expression, fold change over untreated control (3 µM, 24 h): 1.27
CTNNB1 gene expression, fold change over untreated control (3 µM, 24 h): 1.00
CYP1A1 gene expression, fold change over untreated control (3 µM, 24 h): -1.22
CYP2E1 gene expression, fold change over untreated control (3 µM, 24 h): -1.26
CYP3A5 gene expression, fold change over untreated control (3 µM, 24 h): 1.19
CYP3A7 gene expression, fold change over untreated control (3 µM, 24 h): 1.01
CYP19A1 gene expression, fold change over untreated control (3 µM, 24 h): -1.03
EGFR gene expression, fold change over untreated control (3 µM, 24 h): 1.00
ENG gene expression, fold change over untreated control (3 µM, 24 h): 1.04
ESRRA gene expression, fold change over untreated control (3 µM, 24 h): 1.00
ESRRG gene expression, fold change over untreated control (3 µM, 24 h): -1.16
GHR gene expression, fold change over untreated control (3 µM, 24 h): 1.15
GPER1 gene expression, fold change over untreated control (3 µM, 24 h): -1.02
HIF1A gene expression, fold change over untreated control (3 µM, 24 h): 1.00
IGF2 gene expression, fold change over untreated control (3 µM, 24 h): 1.00
IGFR1 gene expression, fold change over untreated control (3 µM, 24 h): -1.02
IGFR2 gene expression, fold change over untreated control (3 µM, 24 h): 1.04
IL6 gene expression, fold change over untreated control (3 µM, 24 h): -1.23
MRP1 gene expression, fold change over untreated control (3 µM, 24 h): -1.05
MRP2 gene expression, fold change over untreated control (3 µM, 24 h): 1.05
MRP3 gene expression, fold change over untreated control (3 µM, 24 h): 1.07
NFKB1 gene expression, fold change over untreated control (3 µM, 24 h): 1.03
NFKB2 gene expression, fold change over untreated control (3 µM, 24 h): -1.07
NR3C1 gene expression, fold change over untreated control (3 µM, 24 h): 1.00
PGF gene expression, fold change over untreated control (3 µM, 24 h): 1.00
PMM1 gene expression, fold change over untreated control (3 µM, 24 h): -1.05
ROLYR2L gene expression, fold change over untreated control (3 µM, 24 h): 1.00
SLC2A1 gene expression, fold change over untreated control (3 µM, 24 h): -1.04
SOD1 gene expression, fold change over untreated control (3 µM, 24 h): 1.00
TGFB1 gene expression, fold change over untreated control (3 µM, 24 h): -1.04
VEGFA gene expression, fold change over untreated control (3 µM, 24 h): 1.04
VEGFB gene expression, fold change over untreated control (3 µM, 24 h): 1.00
WNT4 gene expression, fold change over untreated control (3 µM, 24 h): 1.08
WNT6 gene expression, fold change over untreated control (3 µM, 24 h): -1.09
WNT7B gene expression, fold change over untreated control (3 µM, 24 h): 1.07
mTOR gene expression, fold change over untreated control (3 µM, 24 h): 1.00
11BHSD2 gene expression, fold change over untreated control (300 µM, 24 h): -1.01
AHR gene expression, fold change over untreated control (300 µM, 24 h): -1.04
AHRR gene expression, fold change over untreated control (300 µM, 24 h): 1.19
CAT gene expression, fold change over untreated control (300 µM, 24 h): -1.05
CGB5 gene expression, fold change over untreated control (300 µM, 24 h): 1.11
COX2 gene expression, fold change over untreated control (300 µM, 24 h): 1.27
CYP1A1 gene expression, fold change over untreated control (300 µM, 24 h): -1.16
CYP2E1 gene expression, fold change over untreated control (300 µM, 24 h): 1.04
CYP3A5 gene expression, fold change over untreated control (300 µM, 24 h): -1.83
CYP3A7 gene expression, fold change over untreated control (300 µM, 24 h): -1.25
CYP19A1 gene expression, fold change over untreated control (300 µM, 24 h): -1.29
ENG gene expression, fold change over untreated control (300 µM, 24 h): -1.04
ESRRA gene expression, fold change over untreated control (300 µM, 24 h): 1.19
ESRRG gene expression, fold change over untreated control (300 µM, 24 h): 1.00
GHR gene expression, fold change over untreated control (300 µM, 24 h): 1.11
HIF1A gene expression, fold change over untreated control (300 µM, 24 h): 1.05
IGFR1 gene expression, fold change over untreated control (300 µM, 24 h): -1.10
IGFR2 gene expression, fold change over untreated control (300 µM, 24 h): -1.00
IL6 gene expression, fold change over untreated control (300 µM, 24 h): -1.51
MRP1 gene expression, fold change over untreated control (300 µM, 24 h): 1.14
MRP2 gene expression, fold change over untreated control (300 µM, 24 h): 1.00
MRP3 gene expression, fold change over untreated control (300 µM, 24 h): 1.44
NFKB1 gene expression, fold change over untreated control (300 µM, 24 h): 1.03
NFKB2 gene expression, fold change over untreated control (300 µM, 24 h): -1.04
NR3C1 gene expression, fold change over untreated control (300 µM, 24 h): 1.00
PGF gene expression, fold change over untreated control (300 µM, 24 h): -1.00
PMM1 gene expression, fold change over untreated control (300 µM, 24 h): 1.05
ROLYR2L gene expression, fold change over untreated control (300 µM, 24 h): 1.00
SLC2A1 gene expression, fold change over untreated control (300 µM, 24 h): -1.13
TGFB1 gene expression, fold change over untreated control (300 µM, 24 h): 1.00
VEGFA gene expression, fold change over untreated control (300 µM, 24 h): 1.27
VEGFB gene expression, fold change over untreated control (300 µM, 24 h): -1.01
WNT4 gene expression, fold change over untreated control (300 µM, 24 h): 1.20
WNT6 gene expression, fold change over untreated control (300 µM, 24 h): -1.09
WNT7B gene expression, fold change over untreated control (300 µM, 24 h): -1.12
mTOR gene expression, fold change over untreated control (300 µM, 24 h): 1.00
number of genes with significantly altered expression (of 46) (300 µM, 24 h, FDR p < 0.1): 15 genes
lowest concentration inducing significant dysregulated expression of placental genes (after 24 h of exposure): 3 µM
